Target: T1, GR (Homo sapiens, UniProt P04150)
T1 construct: expressed in transfected cells; host or cells: CHO-K1 (CHO-K1-GR-MMTV-Luc reporter cells)
T1 sequence (P04150 1-777): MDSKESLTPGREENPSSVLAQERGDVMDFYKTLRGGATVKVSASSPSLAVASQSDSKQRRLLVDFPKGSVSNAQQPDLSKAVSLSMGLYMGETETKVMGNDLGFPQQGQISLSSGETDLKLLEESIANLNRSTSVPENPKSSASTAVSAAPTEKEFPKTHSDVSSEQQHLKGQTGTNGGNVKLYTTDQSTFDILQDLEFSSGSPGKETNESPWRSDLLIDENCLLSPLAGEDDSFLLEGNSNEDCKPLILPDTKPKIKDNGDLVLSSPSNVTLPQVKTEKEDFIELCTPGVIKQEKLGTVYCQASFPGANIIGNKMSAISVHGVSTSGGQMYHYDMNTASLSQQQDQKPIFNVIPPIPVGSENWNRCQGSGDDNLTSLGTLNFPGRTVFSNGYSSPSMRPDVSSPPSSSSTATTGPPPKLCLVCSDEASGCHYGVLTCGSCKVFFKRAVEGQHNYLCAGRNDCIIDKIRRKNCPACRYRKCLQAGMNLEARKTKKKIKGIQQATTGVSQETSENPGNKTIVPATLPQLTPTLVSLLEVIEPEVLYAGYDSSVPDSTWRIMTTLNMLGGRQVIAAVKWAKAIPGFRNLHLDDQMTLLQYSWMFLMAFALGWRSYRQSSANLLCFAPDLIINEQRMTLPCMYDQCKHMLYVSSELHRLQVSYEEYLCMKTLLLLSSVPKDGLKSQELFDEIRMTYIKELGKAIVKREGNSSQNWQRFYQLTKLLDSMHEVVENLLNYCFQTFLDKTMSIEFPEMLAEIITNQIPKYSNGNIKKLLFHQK
Assay: In Vitro GR Luciferase Reporter Assay (antagonist assay)
Format: cell-based
Conditions: CHO-K1-GR-MMTV-Luc reporter cells, 10 nM Dexamethasone, 18-24 hours
Procedure: Example A: In Vitro GR Luciferase Reporter Assay
Cell Line: CHO-K1-GR-MMTV-Luc reporter cells
Culture Media: DMEM (with phenol red)+10% FBS
Assay Media: DMEM (without phenol red)+10% CSS
Culture CHO-K1-GR-MMTV-Luc reporter cells in T175 flasks in Culture Media at conditions less than 90% confluence.
Using Bravo (Agilent) liquid handler:
200× DMSO 1:3 serial dilutions of control and test compounds in 96-well non-sterile V bottom plate in DMSO, 12 points for each compound were prepared.
Prepared 5× compound serial dilutions: Add 97.5 μL/well of Assay Media into 96-well non-sterile V bottom plate then added 2.5 ul of 200× concentration of compounds and mix well.
Seeded cells for Antagonist Assay: 5200 CHO-K1-GR-MMTV-Luc reporter cells were seeded in Greiner #781080 flat clear bottom 384-well white TC plate in 20 ul of Assay Media containing 12.5 nM Dexamethasone (final concentration=10 nM).
Added compounds: 5 μl of 5× compounds were added to appropriate wells and followed with a quick spin (1000 rpm, 10 sec) to bring media and cells to the bottom of plate. The plates were covered with SealMate film to avoid evaporation and placed in 37° C. incubator for approximately 18-24 hours.
Read plates: Equilibrate appropriate amount of Promega OneGlo luciferase reagent to room temperature. Remove the plates from incubator and add 25 uL of OneGlo reagent/well by Bravo and read the plates on Tecan Spark plate reader within 15 minutes.
The ability of the compounds disclosed herein to inhibit GR activity was quantified and the respective IC50 value was determined. Table 1 provides the cellular IC50 values of compounds disclosed herein.

Row | IC50 | Structure (SMILES)
1 | ≤ 100 nM | O=C(c1cc(Cl)ccn1)[C@]12Cc3cnn(-c4ccc(F)cc4)c3C=C1CC[C@H](N(C1CC(F)(F)C1)S(=O)(=O)c1ccc(F)cc1)C2 [Example 24]
2 | ≤ 100 nM | Cn1ccc(S(=O)(=O)N(C2CC2)[C@H]2CCC3=Cc4c(cnn4-c4ccc(F)cc4)C[C@]3(C(=O)c3cc(C(F)(F)F)ccn3)C2)c1 [Example 47]
3 | ≤ 100 nM | O=C(c1cc(F)ccn1)[C@]12Cc3cnn(-c4ccc(F)cc4)c3C=C1CC[C@H](N(CC(F)(F)F)S(=O)(=O)c1ccc(F)cc1)C2 [Example 34]
4 | ≤ 100 nM | Cn1cnc(S(=O)(=O)N(C2CC2)[C@H]2CCC3=Cc4c(cnn4-c4ccc(F)nc4)C[C@]3(C(=O)c3cc(F)ccn3)C2)n1 [Example 48]
5 | ≤ 100 nM | C[C@H]([C@H]1CCC2=Cc3c(cnn3-c3ccc(F)cc3)C[C@]2(C(=O)c2ccc(C(F)(F)F)cn2)C1)S(=O)(=O)c1cnn(C)c1 [Example 35]
6 | ≤ 100 nM | CC(C)N([C@H]1CCC2=Cc3c(cnn3-c3ccc(F)cc3)C[C@]2(C(=O)c2ncc(C(C)(C)C)s2)C1)S(=O)(=O)c1cnn(C)c1 [Example 63]
7 | ≤ 100 nM | C[C@@H]([C@H]1CCC2=Cc3c(cnn3-c3ccc(F)cc3)C[C@]2(C(=O)c2ncc(C(F)(F)F)s2)C1)S(=O)(=O)c1cnn(C)c1 (single isomer, unassigned) [Example 10, ((4aR,6S)-1-(4-Fluorophenyl)-6-((R)-1-((1-methyl-1H-pyrazol-4-yl)sulfonyl)ethyl)-1,4,5,6,7,8-hexahydro-4aH-benzo[f]indazol-4a-yl)(5-(trifluoromethyl)thiazol-2-yl)methanone or ((4aR,6S)-1-(4-fluorophenyl)-6-((S)-1-((1-methyl-1H-pyrazol-4-yl)sulfonyl)ethyl)-1,4,5,6,7,8-hexahydro-4aH-benzo[f]indazol-4a-yl)(5-(trifluoromethyl)thiazol-2-yl)methanone]
8 | ≤ 100 nM | CC([C@H]1CCC2=Cc3c(cnn3-c3ccc(F)cc3)C[C@]2(C(=O)c2cc(F)ccn2)C1)S(=O)(=O)c1ncn(C)n1 (some centres unmarked) [Example 77]
9 | ≤ 100 nM | C[C@H]([C@H]1CCC2=Cc3c(cnn3-c3ccc(F)cc3)C[C@]2(C(=O)c2ncc(C(F)(F)F)s2)C1)S(=O)(=O)c1cnn(C)c1 (single isomer, unassigned) [Example 9, ((4aR,6S)-1-(4-Fluorophenyl)-6-((R)-1-((1-methyl-1H-pyrazol-4-yl)sulfonyl)ethyl)-1,4,5,6,7,8-hexahydro-4aH-benzo[f]indazol-4a-yl)(5-(trifluoromethyl)thiazol-2-yl)methanone or ((4aR,6S)-1-(4-fluorophenyl)-6-((S)-1-((1-methyl-1H-pyrazol-4-yl)sulfonyl)ethyl)-1,4,5,6,7,8-hexahydro-4aH-benzo[f]indazol-4a-yl)(5-(trifluoromethyl)thiazol-2-yl)methanone]
10 | ≤ 100 nM | Cn1cnc(S(=O)(=O)N(C2CC2)[C@H]2CCC3=Cc4c(cnn4-c4ccc(F)cc4)C[C@]3(C(=O)c3ncc(C(C)(C)C)s3)C2)n1 [Example 46]
11 | ≤ 100 nM | CCN([C@H]1CCC2=Cc3c(cnn3-c3ccc(F)nc3)C[C@]2(C(=O)c2cc(Cl)ccn2)C1)S(=O)(=O)c1ncn(C)n1 [Example 50]
12 | ≤ 100 nM | Cn1cnc(S(=O)(=O)N(C2CC2)[C@H]2CCC3=Cc4c(cnn4-c4ccc(F)cc4)C[C@]3(C(=O)c3cc(F)ccn3)C2)c1 [Example 2, N-Cyclopropyl-N-((4aS,6S)-1-(4-fluorophenyl)-4a-(4-fluoropicolinoyl)-4,4a,5,6,7,8-hexahydro-1H-benzo[f]indazol-6-yl)-1-methyl-1H-imidazole-4-sulfonamide]
13 | 100 to 1000 nM | Cn1cnc(S(=O)(=O)N([C@H]2CCC3=Cc4c(cnn4-c4ccc(F)cc4)C[C@]3(C(=O)c3cc(C(F)(F)F)ccn3)C2)[C@H]2C[C@](O)(C(F)(F)F)C2)n1 [Example 42]
14 | ≤ 100 nM | Cn1ccc(S(=O)(=O)N(C2CC2)[C@H]2CCC3=Cc4c(cnn4-c4ccc(F)nc4)C[C@]3(C(=O)c3cc(F)ccn3)C2)n1 [Example 89]
15 | ≤ 100 nM | Cn1cc(S(=O)(=O)N(C2CC2)[C@H]2CCC3=Cc4c(cnn4-c4ccc(F)cc4)C[C@]3(C(=O)c3cc(F)ccn3)C2)cn1 [Example 80]
16 | ≤ 100 nM | Cn1cc(S(=O)(=O)N(CCOC(F)(F)F)[C@H]2CCC3=Cc4c(cnn4-c4ccc(F)cc4)C[C@]3(C(=O)c3cc(C(F)(F)F)ccn3)C2)cn1 [Example 60]

Row | IC50 | Structure (SMILES)
17 | ≤ 100 nM | Cn1cc(S(=O)(=O)N(CC(F)F)[C@H]2CCC3=Cc4c(cnn4-c4ccc(F)cc4)C[C@]3(C(=O)c3ncc(C(F)(F)F)s3)C2)cn1 [Example 12]
18 | ≤ 100 nM | O=C(c1cc(F)ccn1)[C@]12Cc3cnn(-c4ccc(F)cc4)c3C=C1CC[C@H](N(C1CC(F)(F)C1)S(=O)(=O)c1cn[nH]c1)C2 [Example 99]
19 | ≤ 100 nM | Cn1cc(S(=O)(=O)N(C2CC2)[C@H]2CCC3=Cc4c(cnn4-c4ccc(F)nc4)C[C@]3(C(=O)c3cc(F)ccn3)C2)cn1 [Example 3, N-Cyclopropyl-N-((4aS,6S)-4a-(4-fluoropicolinoyl)-1-(6-fluoropyridin-3-yl)-4,4a,5,6,7,8-hexahydro-1H-benzo[f]indazol-6-yl)-1-methyl-1H-pyrazole-4-sulfonamide]
20 | ≤ 100 nM | Cn1cnc(S(=O)(=O)N(CC(F)(F)F)[C@H]2CCC3=Cc4c(cnn4-c4ccc(F)nc4)C[C@]3(C(=O)c3cc(F)ccn3)C2)n1 [Example 78]
21 | ≤ 100 nM | Cn1cnc(S(=O)(=O)N(CC(F)(F)F)[C@H]2CCC3=Cc4c(cnn4-c4ccc(F)cc4)C[C@]3(C(=O)c3cc(F)ccn3)C2)n1 [Example 4, N-((4aS,6S)-1-(4-Fluorophenyl)-4a-(4-fluoropicolinoyl)-4,4a,5,6,7,8-hexahydro-1H-benzo[f]indazol-6-yl)-1-methyl-N-(2,2,2-trifluoroethyl)-1H-1,2,4-triazole-3-sulfonamide]
22 | ≤ 100 nM | CC(C)N([C@H]1CCC2=Cc3c(cnn3-c3ccc(F)cc3)C[C@]2(C(=O)c2cc(C(C)(C)C)ccn2)C1)S(=O)(=O)c1cnn(C)c1 [Example 64]
23 | ≤ 100 nM | Cn1cc(S(=O)(=O)C[C@H]2CCC3=Cc4c(cnn4-c4ccc(F)cc4)C[C@]3(C(=O)c3cc(F)ccn3)C2)cn1 [Example 15]
24 | ≤ 100 nM | CC(C)N([C@H]1CCC2=Cc3c(cnn3-c3ccc(F)cc3)C[C@]2(C(=O)c2cc(F)ccn2)C1)S(=O)(=O)c1ncn(C)n1 [Example 81]
25 | ≤ 100 nM | C[C@H]([C@H]1CCC2=Cc3c(cnn3-c3ccc(F)cc3)C[C@]2(C(=O)c2cc(Cl)ccn2)C1)S(=O)(=O)c1ncn(C)n1 [Example 86]
26 | ≤ 100 nM | Cn1ccc(S(=O)(=O)N(C2CC2)[C@H]2CCC3=Cc4c(cnn4-c4ccc(F)cc4)C[C@]3(C(=O)c3cc(Cl)ccn3)C2)c1 [Example 67]
27 | ≤ 100 nM | Cn1cnc(S(=O)(=O)[C@H]2CCC3=Cc4c(cnn4-c4ccc(F)cc4)C[C@]3(C(=O)c3ccc(F)cn3)C2)n1 [Example 91]
28 | ≤ 100 nM | Cn1cnc(S(=O)(=O)[C@H]2CCC3=Cc4c(cnn4-c4ccc(F)cc4)C[C@]3(C(=O)c3ccc(C(F)F)cn3)C2)n1 [Example 92]
29 | ≤ 100 nM | Cn1cc(S(=O)(=O)N(CC(F)F)[C@H]2CCC3=Cc4c(cnn4-c4ccc(F)cc4)C[C@]3(C(=O)c3cc(C(F)(F)F)ccn3)C2)cn1 [Example 37]
30 | ≤ 100 nM | C[C@@H]([C@H]1CCC2=Cc3c(cnn3-c3ccc(F)cc3)C[C@]2(C(=O)c2ccc(C(F)(F)F)cn2)C1)S(=O)(=O)c1cnn(C)c1 [Example 36]
31 | ≤ 100 nM | Cn1cnc(S(=O)(=O)N(C2CC2)[C@H]2CCC3=Cc4c(cnn4-c4ccc(F)nc4)C[C@]3(C(=O)c3cc(C(F)(F)F)ccn3)C2)n1 [Example 11, N-cyclopropyl-N-((4aS,6S)-1-(6-fluoropyridin-3-yl)-4a-(4-(trifluoromethyl)picolinoyl)-4,4a,5,6,7,8-hexahydro-1H-benzo[f]indazol-6-yl)-1-methyl-1H-1,2,4-triazole-3-sulfonamide]
32 | ≤ 100 nM | Cn1cc(S(=O)(=O)N(C2CC2)[C@H]2CCC3=Cc4c(cnn4-c4ccc(F)nc4)C[C@]3(C(=O)c3ncc(C(C)(C)C)s3)C2)cn1 [Example 61]

Source: patent publication US20220079924A1, “GLUCOCORTICOID RECEPTOR MODULATORS” (ORIC Pharmaceuticals, Inc., priority 2018, published 2022)
